Test system: Pseudomonas aeruginosa ST773 (NDM-1, OXA-395, PDC-16)
Assay: Checkerboard MIC, fixed concentration of sBLI (Examples 18-23)
Format: cell-based
Text: The antibiotics and serine β-lactamase-inhibitors (sBLIs) were purchased from the following suppliers: Ceftazidime (CAZ): Sigma-Aldrich; Cefepime (FEP): Sigma-Aldrich; Cefpodoxime (CEFP): MedChemExpress; Sulbactam (SUL): Sigma-Aldrich Avibactam (AVI): Biosynth; Vaborbactam (VAB): ABCR; Tazobactam (TAZ): Sigma-Aldrich; Taniborbactam (TAN): Sigma-Aldrich.
In each of Examples 3-23, the compound of Example 26 of WO 2018/033719 was employed as the zinc chelator. The following abbreviations are used in these examples: sBLI means serine-β-lactamase inhibitor; CFU means colony-forming unit, which is a group of microbes that grows from a single cell on a petri plate; DMSO means dimethyl sulfoxide; MHB means Mueller-Hinton broth; caMHB means cation-adjusted Mueller-Hinton broth; MIC means minimum inhibitory concentration—the lower the MIC, the more efficient the combination against the respective bacterial strain.
General Protocol 2 Used in Examples 11-23 Employing a Fixed Concentration of sBLI within Each Experiment:
Antimicrobial susceptibility testing (AST) by broth microdilution (MIC determination) was performed according to The European Committee on Antimicrobial Susceptibility Testing (EUCAST) guidelines (see Reading guide for broth microdilution Version 5.0, 2024: https://www.eucast.org).
Sterile clear round bottom polystyrene (non-treated) 96-well microplates (Corning 3788) were used for making serial two-fold dilutions of the antibiotic in cation-adjusted Mueller Hinton II broth (caMHB; Thermo Scientific, T3462, containing 29.4 μM Zn^2+ or MILLIPORE, 90922-500G, containing 5.6 μM Zn^2+), across the columns of the microtiter plate (128-0.06 μg/mL; columns 1-12).
The checkerboard plates were all modified by adding a serine β-lactamase inhibitor (sBLI) at a fixed concentration of 16 μg/mL. Additionally, the zinc chelator was added at various fixed concentrations. Samples were mixed so that all plates contained a control containing antibiotic alone (no sBLI, no zinc chelator), a sample containing antibiotic and sBLI (double combination; no zinc chelator), and a sample containing antibiotic, sBLI and zinc chelator (triple combination). All test wells used in each plate contained growth medium (caMHB), and inoculated bacteria at a final inoculum between 3-7×10^5 CFU/mL. […] Synergy for the triple combination (antibiotic, sBLI, and zinc chelator) was defined as when the MIC in any of the rows containing the zinc chelator in combination with antibiotic and sBLI (triple combination), was lower than for antibiotic alone and lower than for the antibiotic and sBLI double combination.
(§1) An X in rows 1-4 in the table indicates growth of the bacterial inoculum, while a blank cell indicates no growth. Concentrations (μg/mL) of CAZ are given in row 0. AVI and the zinc chelator were added in fixed concentrations (AVI at 16 μg/mL in rows 2-4, zinc chelator at 16 μg/mL in row 3 and at 8 μg/mL in row 4). As a control, the effect of CAZ alone was tested (row 1). All wells contained bacterial growth medium (caMHB, 29.4 μM Zn^2+) and were inoculated with the test bacterium. The grey cells indicate the CAZ MIC.
as §1, with “FEP” for “CAZ”, “SUL” for “AVI”, “(SUL” for “(AVI”
An X in rows 1-5 in the table indicates growth of the bacterial inoculum, while a blank cell indicates no growth. Concentrations (μg/mL) of CAZ are given in row 0. AVI and the zinc chelator were added in fixed concentrations (AVI at 16 μg/mL in rows 2-5, zinc chelator at 16 μg/mL in row 3, at 8 μg/mL in row 4, and at 4 μg/mL in row 5). […]

Measured: synergy with the zinc chelator

CN(C[C@H](O)[C@@H](O)[C@H](O)[C@H](O)CO)C(=O)c1ccc(CN(Cc2ccccn2)Cc2ccccn2)nc1 [zinc chelator]
Synergy: zinc chelator 4 μg/mL, with FEP and AVI 16 μg/mL, caMHB 5.6 μM Zn2+ | zinc chelator 4 μg/mL, with FEP and SUL 16 μg/mL, caMHB 5.6 μM Zn2+ | zinc chelator 8 μg/mL, with CAZ and AVI 16 μg/mL, caMHB 5.6 μM Zn2+ | zinc chelator 8 μg/mL, with CAZ and AVI 16 μg/mL, caMHB 29.4 μM Zn2+ | zinc chelator 8 μg/mL, with FEP and AVI 16 μg/mL, caMHB 5.6 μM Zn2+ | zinc chelator 8 μg/mL, with FEP and SUL 16 μg/mL, caMHB 5.6 μM Zn2+ | zinc chelator 8 μg/mL, with FEP and TAZ 16 μg/mL, caMHB 5.6 μM Zn2+ | zinc chelator 16 μg/mL, with CAZ and AVI 16 μg/mL, caMHB 5.6 μM Zn2+ | zinc chelator 16 μg/mL, with CAZ and AVI 16 μg/mL, caMHB 29.4 μM Zn2+ | zinc chelator 16 μg/mL, with FEP and AVI 16 μg/mL, caMHB 5.6 μM Zn2+ | zinc chelator 16 μg/mL, with FEP and SUL 16 μg/mL, caMHB 5.6 μM Zn2+ | zinc chelator 16 μg/mL, with FEP and SUL 16 μg/mL, caMHB 29.4 μM Zn2+ | zinc chelator 16 μg/mL, with FEP and TAZ 16 μg/mL, caMHB 5.6 μM Zn2+
